Test results from the supplement of paper PMC10307832.

Tests used:
Experiment in all cases: relative viability (nuclei count vs DMSO), 5 days (fraction); higher = more cells survive
Doramapimod + Crizotinib = compound: Cc1ccc(-n2nc(C(C)(C)C)cc2NC(=O)Nc2ccc(OCCN3CCOCC3)c3ccccc23)cc1 [Doramapimod] + C[C@@H](Oc1cc(-c2cnn(C3CCNCC3)c2)cnc1N)c1c(Cl)ccc(F)c1Cl [Crizotinib] (partner 1 µM)
In short: (§1)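 The day after seeding in 1536-well plates, lung cancer cell lines were treated by pin tool with a single drug, or with a fixed anchor-drug dose together with five library-drug doses (not always all listed) in √10 steps. After 5 days, a combined fix-and-stain solution (final 0.05% Triton X-100, 1% formaldehyde, 1 ug/ml Hoechst) was added. Nuclei counted on 4× images gave relative viability as treated counts over vehicle counts, reported as the median of duplicate plates.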

RAF265 + Alpelisib = compound: Cn1c(Nc2ccc(C(F)(F)F)cc2)nc2cc(Oc3ccnc(-c4ncc(C(F)(F)F)[nH]4)c3)ccc21 [RAF265] + Cc1nc(NC(=O)N2CCC[C@H]2C(N)=O)sc1-c1ccnc(C(C)(C)C(F)(F)F)c1 [Alpelisib] (partner 2 µM)
In short: as §1

Doramapimod + Alpelisib = compound: Cc1ccc(-n2nc(C(C)(C)C)cc2NC(=O)Nc2ccc(OCCN3CCOCC3)c3ccccc23)cc1 [Doramapimod] + Cc1nc(NC(=O)N2CCC[C@H]2C(N)=O)sc1-c1ccnc(C(C)(C)C(F)(F)F)c1 [Alpelisib] (partner 2 µM)
In short: as §1

IPA-3 + Alpelisib = compound: C1=CC=C2C(=C1)C=CC(=C2SSC3=C(C=CC4=CC=CC=C43)O)O [IPA-3] + Cc1nc(NC(=O)N2CCC[C@H]2C(N)=O)sc1-c1ccnc(C(C)(C)C(F)(F)F)c1 [Alpelisib] (partner 2 µM)
In short: as §1

Cell Line | relative viability (Doramapimod + Crizotinib; first compound 0.02 µM) | relative viability (Doramapimod + Crizotinib; first compound 0.06325 µM) | relative viability (Doramapimod + Crizotinib; first compound 0.2 µM) | relative viability (Doramapimod + Crizotinib; first compound 0.6325 µM) | relative viability (Doramapimod + Crizotinib; first compound 2 µM) | relative viability (RAF265 + Alpelisib; first compound 0.01 µM) | relative viability (RAF265 + Alpelisib; first compound 0.03162 µM) | relative viability (RAF265 + Alpelisib; first compound 0.1 µM) | relative viability (RAF265 + Alpelisib; first compound 0.3162 µM) | relative viability (RAF265 + Alpelisib; first compound 1 µM) | relative viability (Doramapimod + Alpelisib; first compound 0.02 µM) | relative viability (Doramapimod + Alpelisib; first compound 0.06325 µM) | relative viability (Doramapimod + Alpelisib; first compound 0.2 µM) | relative viability (Doramapimod + Alpelisib; first compound 0.6325 µM) | relative viability (Doramapimod + Alpelisib; first compound 2 µM) | relative viability (IPA-3 + Alpelisib; first compound 0.2 µM) | relative viability (IPA-3 + Alpelisib; first compound 0.6325 µM) | relative viability (IPA-3 + Alpelisib; first compound 2 µM) | relative viability (IPA-3 + Alpelisib; first compound 6.325 µM) | relative viability (IPA-3 + Alpelisib; first compound 20 µM)
201T | 1.03 | 1.06 | 0.993 | 1.09 | 1.01 | 0.981 | 1.02 | 1.07 | 1.06 | 0.981 | 1.04 | 1 | 0.992 | 1.07 | 0.982 | 1.02 | 1.01 | 0.997 | 0.936 | 1.04
A549 | 0.763 | 0.747 | 0.771 | 0.743 | 0.762 | 0.761 | 0.612 | 0.541 | 0.244 | 0.178 | 0.69 | 0.626 | 0.675 | 0.784 | 0.55 | 0.926 | 0.705 | 0.838 | 0.753 | 0.745
A-427 | 0.927 | 0.933 | 0.98 |  | 0.932 | 1.17 | 1.01 | 0.976 | 0.723 | 0.402 | 1.07 | 1.1 | 1.15 |  | 1.08 | 1.11 | 0.993 | 1.11 | 1.08 | 1.14
ABC-1 | 1.03 | 1.09 | 0.842 | 0.75 | 1.29 | 1.13 | 1.01 | 1.01 | 1.05 | 0.619 | 1.09 | 0.839 | 1.14 | 1.08 | 0.954 | 1.23 | 1.11 |  | 0.881 | 1.07
BEN | 0.855 | 0.683 | 0.85 | 0.742 | 0.761 | 1.08 | 1.05 | 1.2 | 1.1 | 0.814 | 0.903 | 0.876 | 1.05 | 0.97 | 0.95 | 1.28 | 0.992 | 1.09 | 0.954 | 1.26
CAL-12T | 0.687 | 0.726 | 0.746 | 0.635 | 0.727 | 1.26 | 1.04 | 0.944 | 0.575 | 0.354 | 1.1 | 1.05 | 1.21 | 1.41 | 1.09 | 1.38 | 1.14 | 1.18 | 0.999 | 1.27
COR-L23 | 0.705 | 0.573 | 0.571 | 0.651 | 0.667 | 0.785 | 0.696 | 0.669 | 0.389 | 0.304 | 0.762 | 0.719 | 0.755 | 0.734 | 0.697 | 0.872 | 0.769 | 0.861 | 0.589 | 0.587
COR-L 105 | 0.849 | 0.915 | 0.798 | 0.897 | 0.75 | 1.09 | 0.948 | 1.16 | 0.603 | 0.461 | 0.844 | 1.07 | 0.983 | 1 | 0.963 | 0.998 | 0.964 | 1.17 | 0.859 | 1.11
Calu-6 | 0.823 | 0.815 | 0.865 | 0.866 | 0.745 | 0.958 | 0.771 | 0.43 | 0.302 | 0.274 | 1.05 | 0.924 | 0.866 | 1.16 | 0.986 | 1.08 | 1.01 | 1.01 | 0.928 | 0.924
ChaGo-K-1 | 1.15 | 1.16 | 1.17 |  | 1.11 |  |  |  |  |  |  |  |  |  |  |  |  |  |  | 
EBC-1 | 0.161 | 0.196 | 0.162 | 0.184 | 0.188 | 0.907 | 0.794 | 0.495 | 0.403 | 0.541 | 0.804 | 0.792 | 0.785 | 0.933 | 0.675 | 0.992 | 0.73 | 0.821 | 0.811 | 0.475
EKVX | 0.986 | 0.98 | 0.822 | 0.951 | 0.918 | 0.863 | 0.842 | 0.944 | 0.516 | 0.624 | 0.826 | 0.755 | 0.773 | 1 | 0.833 | 0.923 | 0.859 | 0.941 | 0.941 | 1.27
EMC-BAC-2 | 0.716 | 0.758 | 0.792 | 0.771 | 0.699 | 0.735 | 0.682 | 0.692 | 0.52 | 0.263 | 0.75 | 0.736 | 0.727 | 0.761 | 0.695 | 0.813 | 0.744 | 0.785 | 0.694 | 0.822
EPLC-272H | 0.942 | 0.975 | 1.17 | 0.974 | 0.972 | 0.847 | 0.792 | 0.801 | 0.478 | 0.367 | 0.924 | 0.918 | 0.946 | 1.04 | 0.811 | 0.962 | 0.947 | 0.902 | 0.968 | 1.23
H3255 | 0.919 | 0.785 | 0.893 | 0.851 | 0.852 | 0.706 | 0.836 | 0.691 |  | 0.455 | 0.785 | 0.659 | 0.705 | 0.83 | 0.621 | 0.798 | 0.774 | 0.48 | 0.657 | 0.863
HARA | 1.27 | 0.966 | 0.965 | 1.08 | 0.992 | 0.762 | 0.708 | 0.736 | 0.477 | 0.287 | 0.807 | 0.762 | 0.742 | 0.846 | 0.598 | 0.897 | 0.784 | 0.919 | 0.804 | 1.05
HCC-15 | 0.836 | 0.731 | 0.838 | 0.887 | 0.718 | 0.949 | 0.776 | 0.844 | 0.544 | 0.439 | 0.854 | 0.801 | 0.884 | 0.906 | 0.775 | 1.01 | 0.831 | 0.73 | 0.876 | 0.928
